Assay results published in patent US20250288561A1, “NEZULCITINIB FOR DELIVERY BY NEBULIZED ORAL INHALATION” (THERAVANCE BIOPHARMA R&D IP, LLC, priority 2022, published 2025).
Read-outs that look alike come from different tables or passages of the source.

Assays:
[1] = Earlier phase 1 clinical trial: safety, tolerability, hematological and lipid changes; format: in vivo, human
Method: Compound 1 was evaluated in a phase 1 clinical trial and dosed in humans through nebulized inhalation at 1 mg, 3 mg, and 10 mg for up to 7 days. […] The pharmacokinetics of inhaled compound 1 are consistent with low plasma exposures after inhaled administration. […] Additionally, absolute NK cell counts were evaluated after multiple-dosing to assess the potential for systemic pharmacologic effects associated with JAK inhibition by compound 1. […] The lack of reduction in NK cell counts is also consistent with the lack of systemic JAK inhibition. […] Other systemically mediated hematological changes associated with JAK inhibition, including neutrophil and hemoglobin reductions as well as lipid changes, were not observed with inhaled administration of compound 1.
The selected dose of 3 mg in the present study was consistent with the dose in a recently completed Phase 2 study. In addition, the 3 mg dose ensured adequate characterization of the nezulcitinib PK profile. Dose levels up to 9 mg of nezulcitinib were also evaluated (Administration D2). This dose level was within the range of doses tested previously (up to 10 mg of nezulcitinib) in healthy participants and those with COVID-19 in previous clinical studies.

IFNγ signaling = test: Inhibition of cytokine signaling; format: cell-based
[2] = Phase 1 open-label study: plasma PK of single inhaled nezulcitinib doses under supplemental oxygenation scenarios; format: in vivo, human; details: for AUC % extrap / CL/F / DN AUC0-inf / DN AUC0-t / DN Cmax / Kel / Tmax / AUC(0-inf) / Cmax / AUC(0-t) / Vd/F / half-life: plasma; for AUC % extrap / CL/F / DN AUC0-inf / DN AUC0-t / DN Cmax / Kel / AUC(0-inf) / Cmax / AUC(0-t) / Vd/F / half-life: arithmetic mean; for Tmax: median; for Vd/F: read-out: Vz/F; for half-life: read-out: t½ (converted)
Excerpt: Part A: assessed the plasma PK of nezulcitinib following single inhaled doses administered in the setting of various supplemental oxygenation scenarios in healthy participants.
This was a Phase 1, open-label, fixed-sequence, 4-period study to evaluate the PK and safety of single inhaled doses of nezulcitinib, administered under different supplemental oxygenation scenarios.
Participants received a single inhaled dose of nezulcitinib using a nebulizer device on Day 1 of each administration period, under different supplementary oxygenation conditions and under fasting conditions.
Administrations were as follows: • Administration A (test): 3 mg nezulcitinib delivered by nasal inhalation via the Aerogen Solo integrated with a high-flow nasal cannula circuit delivering supplemental oxygen at a flow rate of 30 L/min. • Administration B (reference): 3 mg nezulcitinib delivered by oral inhalation via the Aerogen Solo coupled with the Aerogen Ultra handheld device, in the presence of supplemental oxygen delivery via low-flow nasal cannula at 6 L/min. • Administration C (test): 3 mg nezulcitinib delivered by oral inhalation via the Aerogen Solo coupled with the Aerogen Ultra handheld device, in the presence of supplemental oxygen delivery via high-flow nasal cannula at a flow rate of 30 L/min. • Administration D1 (test): 3 mg nezulcitinib delivered by oral inhalation via the Aerogen Solo coupled with the Aerogen Ultra handheld device, in the presence of supplemental oxygen delivery via high-flow nasal cannula at a flow rate of 50 L/min. • Administration D2 (test): 9 mg nezulcitinib delivered by oral inhalation via the Aerogen Solo coupled with the Aerogen Ultra handheld device, in the presence of supplemental oxygen delivery via high-flow nasal cannula at a flow rate of 50 L/min.
Serial blood samples were collected prior to and until 48 hours following dosing on Day 1 of each period to determine the concentration of nezulcitinib in plasma.
The following non-compartmental PK parameters were calculated for nezulcitinib, as appropriate:
• AUC0-t: The area under the concentration time curve, from time 0 to the last observed non-zero concentration, as calculated by the linear trapezoidal method. • AUC0-24: The area under the concentration time curve, from time 0 to the 24 hour time point, as calculated by the linear trapezoidal method. • AUC0-inf: The area under the concentration time curve from time 0 extrapolated to infinity. AUC0-inf was calculated as the sum of AUC0-t plus the ratio of the last measurable plasma concentration to the elimination rate constant. • AUC % extrap: Percent of AUC0-inf extrapolated, represented as (1−AUC0-t/AUC0-inf)*100. • CL/F: Apparent total plasma clearance after oral (extravascular) administration, calculated as Dose/AUC0-inf. • Cmax: Maximum observed concentration. • Tmax: Time to reach Cmax. If the maximum value occurs at more than one time point, Tmax is defined as the first time point with this value. • Kel: Apparent first order terminal elimination rate constant calculated from a semi-log plot of the plasma concentration versus time curve. The parameter was calculated by linear least-squares regression analysis using the maximum number of points in the terminal log-linear phase (e.g., three or more non-zero plasma concentrations). • t1/2: Apparent first-order terminal elimination half-life was calculated as 0.693/Kel. • Vz/F: Apparent volume of distribution during the terminal elimination phase after oral (extravascular) administration, calculated as Dose/(AUC0-inf*Kel).

[3] = Administration A: single 3 mg, nasal inhalation via high-flow nasal cannula circuit, oxygen 30 L/min
[4] = Administration B: single 3 mg, oral inhalation, low-flow nasal cannula oxygen 6 L/min
[5] = Administration C: single 3 mg, oral inhalation, high-flow nasal cannula oxygen 30 L/min
[6] = Administration D1: single 3 mg, oral inhalation, high-flow nasal cannula oxygen 50 L/min
[7] = Administration D2: single 9 mg, oral inhalation, high-flow nasal cannula oxygen 50 L/min
[8] = human, inhaled or intranasal, 3 mg, Administration A: single 3 mg, nasal inhalation via high-flow nasal cannula circuit, oxygen 30 L/min
[9] = human, inhaled, 3 mg, Administration B: single 3 mg, oral inhalation, low-flow nasal cannula oxygen 6 L/min
[10] = human, inhaled, 3 mg, Administration C: single 3 mg, oral inhalation, high-flow nasal cannula oxygen 30 L/min
[11] = human, inhaled, 3 mg, Administration D1: single 3 mg, oral inhalation, high-flow nasal cannula oxygen 50 L/min
[12] = human, inhaled, 9 mg, Administration D2: single 9 mg, oral inhalation, high-flow nasal cannula oxygen 50 L/min

CCc1cc(O)ccc1-c1ccc2c(-c3nc4c([nH]3)CN(C(C)C)[C@H](C(=O)N3CC(N(C)C)C3)C4)n[nH]c2c1 [Compound 1, (S)-(3-(dimethylamino)azetidin-1-yl)(2-(6-(2-ethyl-4-hydroxyphenyl)-1H-indazol-3-yl)-5-isopropyl-4,5,6,7-tetrahydro-3H-imidazo[4,5-c]pyridin-6-yl)methanone]
neutrophil and hemoglobin reductions, lipid changes ([1]; inhaled administration): not observed
safety and tolerability ([1]; single and multiple doses of 1, 3, and 10 mg, healthy adult participants): safe and well tolerated
inhibition of IFNγ signaling (IFNγ signaling): shown to inhibit
plasma concentrations, effect of increasing flow rate from 30 L/min (Administration C) to 50 L/min (Administration D1) ([2]; 3 mg oral inhalation): did not impact the plasma concentrations
plasma concentrations, Administration C compared to Administration A ([2]; 3 mg oral inhalation with high-flow 30 L/min vs 3 mg nasal through the high-flow circuit 30 L/min, FIG. 3): sustained increased plasma concentrations
AUC % extrap [2, 3]: 4.451%
CL/F [2, 3]: 526.8 L/h
DN AUC0-inf [2, 3]: 2.586 ± [ng*hr/mL]/mg
DN AUC0-t [2, 3]: 2.480 ± [ng*hr/mL]/mg
DN Cmax [2, 3]: 0.5610 ± [ng/mL]/mg
Kel [2, 3]: 0.07122 ± 1 h⁻¹
Tmax [2, 3]: 1.000 h
AUC % extrap [2, 4]: 3.152%
CL/F [2, 4]: 287.0 L/h
DN AUC0-inf [2, 4]: 18.00 ± [ng*hr/mL]/mg
DN AUC0-t [2, 4]: 17.46 ± [ng*hr/mL]/mg
DN Cmax [2, 4]: 4.658 ± [ng/mL]/mg
Kel [2, 4]: 0.07667 ± 1 h⁻¹
AUC % extrap [2, 5]: 3.898%
CL/F [2, 5]: 128.9 L/h
DN AUC0-inf [2, 5]: 18.24 ± [ng*hr/mL]/mg
DN AUC0-t [2, 5]: 17.69 ± [ng*hr/mL]/mg
DN Cmax [2, 5]: 4.725 ± [ng/mL]/mg
Kel [2, 5]: 0.04804 ± 1 h⁻¹
AUC % extrap [2, 6]: 2.813%
CL/F [2, 6]: 146.9 L/h
DN AUC0-inf [2, 6]: 17.44 ± [ng*hr/mL]/mg
DN AUC0-t [2, 6]: 16.94 ± [ng*hr/mL]/mg
DN Cmax [2, 6]: 4.649 ± [ng/mL]/mg
Kel [2, 6]: 0.06152 ± 1 h⁻¹
Tmax [2, 6]: 1.000 h
AUC % extrap [2, 7]: 2.727%
CL/F [2, 7]: 312.3 L/h
DN AUC0-inf [2, 7]: 16.89 ± [ng*hr/mL]/mg
DN AUC0-t [2, 7]: 16.53 ± [ng*hr/mL]/mg
DN Cmax [2, 7]: 4.858 ± [ng/mL]/mg
Kel [2, 7]: 0.05057 ± 1 h⁻¹
Tmax ([2]; human, inhaled, Administration B: single 3 mg, oral inhalation, low-flow nasal cannula oxygen 6 L/min, read-out: Tmax): 1 h
Tmax ([2]; human, inhaled, Administration D2: single 9 mg, oral inhalation, high-flow nasal cannula oxygen 50 L/min, read-out: Tmax): 1 h
AUC(0-inf) [2, 8]: 0.00776 µg·h/mL
Cmax [2, 8]: 0.00168 µg/mL
AUC(0-t) ([2]; human, inhaled or intranasal, 3 mg, Administration A: single 3 mg, nasal inhalation via high-flow nasal cannula circuit, oxygen 30 L/min, read-out: AUC0-24): 0.00706 µg·h/mL
AUC(0-t) ([2]; human, inhaled or intranasal, 3 mg, Administration A: single 3 mg, nasal inhalation via high-flow nasal cannula circuit, oxygen 30 L/min, read-out: AUC0-t): 0.00744 µg·h/mL
Vd/F [2, 8]: 7400 L
half-life [2, 8]: 10.2 h
AUC(0-inf) [2, 9]: 0.054 µg·h/mL
Cmax [2, 9]: 0.014 µg/mL
AUC(0-t) ([2]; human, inhaled, 3 mg, Administration B: single 3 mg, oral inhalation, low-flow nasal cannula oxygen 6 L/min, read-out: AUC0-24): 0.0491 µg·h/mL
AUC(0-t) ([2]; human, inhaled, 3 mg, Administration B: single 3 mg, oral inhalation, low-flow nasal cannula oxygen 6 L/min, read-out: AUC0-t): 0.0524 µg·h/mL
Vd/F [2, 9]: 1770 L
half-life [2, 9]: 12.9 h
AUC(0-inf) [2, 10]: 0.0547 µg·h/mL
Cmax [2, 10]: 0.0142 µg/mL
AUC(0-t) ([2]; human, inhaled, 3 mg, Administration C: single 3 mg, oral inhalation, high-flow nasal cannula oxygen 30 L/min, read-out: AUC0-24): 0.0499 µg·h/mL
AUC(0-t) ([2]; human, inhaled, 3 mg, Administration C: single 3 mg, oral inhalation, high-flow nasal cannula oxygen 30 L/min, read-out: AUC0-t): 0.0531 µg·h/mL
Vd/F [2, 10]: 3920 L
half-life [2, 10]: 15.1 h
AUC(0-inf) [2, 11]: 0.0523 µg·h/mL
Cmax [2, 11]: 0.0139 µg/mL
AUC(0-t) ([2]; human, inhaled, 3 mg, Administration D1: single 3 mg, oral inhalation, high-flow nasal cannula oxygen 50 L/min, read-out: AUC0-24): 0.0479 µg·h/mL
AUC(0-t) ([2]; human, inhaled, 3 mg, Administration D1: single 3 mg, oral inhalation, high-flow nasal cannula oxygen 50 L/min, read-out: AUC0-t): 0.0508 µg·h/mL
Vd/F [2, 11]: 1780 L
half-life [2, 11]: 12.3 h
AUC(0-inf) [2, 12]: 0.152 µg·h/mL
Cmax [2, 12]: 0.0437 µg/mL
AUC(0-t) ([2]; human, inhaled, 9 mg, Administration D2: single 9 mg, oral inhalation, high-flow nasal cannula oxygen 50 L/min, read-out: AUC0-24): 0.141 µg·h/mL
AUC(0-t) ([2]; human, inhaled, 9 mg, Administration D2: single 9 mg, oral inhalation, high-flow nasal cannula oxygen 50 L/min, read-out: AUC0-t): 0.149 µg·h/mL
Vd/F [2, 12]: 7310 L
half-life [2, 12]: 14.1 h
plasma concentration, 9 mg (Administration D2) vs 3 mg (Administration D1) ([2]; oral inhalation, high-flow 50 L/min, FIG. 6): approximately a dose-proportional increase in plasma concentration
